Reference: patent US20100022514A1, “Heterocycle Compounds and Methods of Use Thereof” (NORVARTIS AG, priority 2006, published 2010)

Assays:
[1] = test system: p21 promoter (p21-luc) in H1299 cells; experiment: p21 promoter luciferase assay using stably transfected p21-luc in H1299 cells; type: cell-based; settings: Homo sapiens, NCI-H1299
How it was run: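 H1299 cells stably carrying a p21 promoter–luciferase reporter, grown in RPMI 1640/10% FBS under Geneticin selection, seeded about 5000 cells/well and incubated overnight at 37 C. Compound exposure lasted one day. Cells were then lysed and luciferase luminescence measured.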

[2] = target: T1, HDAC-1 (Homo sapiens, UniProt Q13547); experiment: Deacetylase fluorescence assay (HDAC-1); type: biochemical; settings: read-out: HDAC-1 IC50
T1 construct: made in house
How it was run: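 Flag-tagged HDAC-1 immunopurified from overexpressing 293-derived cells was assayed in 25 mM Tris-HCl pH 8.0, 137 mM NaCl, 2.7 mM KCl, 1 mM MgCl2 with Fluor de Lys substrate (50 uM) and inhibitor. Deacetylation was read by fluorescence after trypsin developer containing TSA.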

T1 sequence (Q13547 whole entry): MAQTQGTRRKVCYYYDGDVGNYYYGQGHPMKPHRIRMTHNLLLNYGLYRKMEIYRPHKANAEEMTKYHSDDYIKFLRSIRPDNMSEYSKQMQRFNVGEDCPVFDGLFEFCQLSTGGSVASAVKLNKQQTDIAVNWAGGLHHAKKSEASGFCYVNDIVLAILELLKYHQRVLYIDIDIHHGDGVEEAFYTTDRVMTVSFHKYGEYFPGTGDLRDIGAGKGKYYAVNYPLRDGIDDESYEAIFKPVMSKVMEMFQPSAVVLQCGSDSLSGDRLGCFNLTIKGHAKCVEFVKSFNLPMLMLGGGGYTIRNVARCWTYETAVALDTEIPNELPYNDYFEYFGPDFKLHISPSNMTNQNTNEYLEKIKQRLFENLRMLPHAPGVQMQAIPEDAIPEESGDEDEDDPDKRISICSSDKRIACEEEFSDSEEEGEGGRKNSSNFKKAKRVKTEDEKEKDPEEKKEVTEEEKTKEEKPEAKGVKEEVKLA

Row | Structure (SMILES) | AC50 [1] | IC50 [2]
1 | O=C(/C=C/c1ccc2c(c1)CN(Cc1ccccc1)CC2)NO [Example 51, (E)-3-(2-Benzyl-1,2,3,4-tetrahydro-isoquinolin-7-yl)-N-hydroxy-acrylamide] | > 1000 nM | 100 to 1000 nM
2 | Cc1nn2ccccc2c1CCN1CCCc2cc(/C=C/C(=O)NO)ccc2C1 [Example 33, (E)-N-Hydroxy-3-{2-[2-(2-methyl-pyrazolo[1,5-a]pyridin-3-yl)-ethyl]-2,3,4,5-tetrahydro-1H-benzo[c]azepin-7-yl}-acrylamide] | > 1000 nM | < 100 nM
3 | CCc1nn2ccccc2c1CCN1CCc2cc(/C=C/C(=O)NO)ccc2C1 [Example 72, (E)-3-{2-[2-(2-Ethyl-pyrazolo[1,5-a]pyridin-3-yl)-ethyl]-1,2,3,4-tetrahydro-isoquinolin-6-yl}-N-hydroxy-acrylamide] | 100 to 1000 nM | < 100 nM
4 | COc1cccc(C(=O)N2CCc3cc(/C=C/C(=O)NO)ccc3C2)c1 [Example 88, (E)-N-Hydroxy-3-[2-(3-methoxy-benzoyl)-1,2,3,4-tetrahydro-isoquinolin-6-yl]-acrylamide] | > 1000 nM | 100 to 1000 nM
5 | O=C(/C=C/c1ccc2c(c1)CN(S(=O)(=O)c1ccccc1)CC2)NO [Example 54, (E)-3-(2-Benzenesulfonyl-1,2,3,4-tetrahydro-isoquinolin-7-yl)-N-hydroxy-acrylamide] | > 1000 nM | 100 to 1000 nM
6 | Cc1[nH]c2ccccc2c1CC(=O)N1CCc2cc(/C=C/C(=O)NO)ccc2C1 [Example 79, (E)-N-Hydroxy-3-{2-[2-(2-methyl-1H-indol-3-yl)-acetyl]-1,2,3,4-tetrahydro-isoquinolin-6-yl}-acrylamide] | > 1000 nM | < 100 nM
